Data reported in patent publication US20200237871A1, “METHODS FOR MITIGATING LIVER INJURY AND PROMOTING LIVER HYPERTROPHY, REGENERATION AND CELL ENGRAFTMENT IN CONJUNCTION WITH RADIATION AND/OR RADIOMIMETIC TREATMENTS” (Janssen Pharmaceutica NV, priority 2019, published 2020).
Entries after “also recorded” stand apart in the source; their conditions may differ.

Assays:
Hemophilia A mice = test: Drabkin's tail bleeding assay (Example 6); type: in vivo, mouse
Source text: 8-16-week-old male C57/BL6 mice, 8-16-week-old female and male B6129SF2/J mice (donor for isolating LSECs) and 8-16-week-old female and male Hemophilia mice (F^8tm1Kaz) mice were used in this study. Mice were housed in groups of up to 5 in micro-isolator cages on stainless steel racks (Allentown, Inc., Allentown, N.J.) with a total floor space of 500 cm^2. The cages utilized an external water bottle and a dual feeder rack (Fisher Scientific, Hampton, N.H.). These cages were stored in the storage rack which provided temperature, humidity, and ventilation control to each individual cage (Allentown, Inc.). Bed-o'Cobs ⅛″ (Fisher Scientific) were used as bedding material in each cage.
The methods were identical to Experiment 5 as described above; including the preparation of test articles (solutions of RWJ-800088 and AdHGF), isolation and transplant of LSECs, and Hepatic irradiation.
The livers of mice were irradiated at 50 Gy by using an X-ray irradiator (SARRP). At 24 hours post-irradiation, the LSECs (1×10^6 cells/mouse) were injected to the mouse through tail vein. […]
A tail bleeding test was performed in which the extent of bleeding and time to clotting over the course of 30 minutes was evaluated. FVIII protein levels were evaluated by Western blot and mRNA profiling in the blood and liver to evaluate the extent to which there was engraftment of functioning LSECs that produce FVIII. […]

DPPIV KO mice = test: Engraftment of transplanted LSECs and hepatocytes by DPPIV immunostaining after HIR (Example 7); type: in vivo, mouse; details: Study A
Procedure: 8-12-week-old male Di-peptyl peptidase IV knockout (Dppiv^−/−) mice and 8-12-week-old male C57BL/6 mice were used in this study.
The methods were identical to Experiment 5 as described above; including the preparation of test articles (solutions of RWJ-800088), isolation and transplant of LSECs, and Hepatic irradiation. In addition, Romiplostim was purchased from pharmacy and came in 250 μg powder. It was reconstituted per manufacturers description using solvent for solution for injection. After reconstitution, a deliverable volume of 0.5 mL solution contained 250 μg of romiplostim (500 μg/mL).
Animals were weighed in the beginning of the experiment.
The mice were transplanted with DPPIV^+ 5×10^5 liver sinusoidal endothelial cells (LSECs) intrasplenically 4 or 5 days later. The mice were then injected with 300 μg/kg of RWJ-800088 or Romiplostim intraperitoneally 10 minutes after LSEC transplantation as shown in Table 7.
The mice were then monitored until they made a full recovery and returned to the cage. The mice were followed for 2 and 5 months and necropsied. The liver was excised and prepared for the frozen section. The immunostaining of DPPIV activity was performed to examine the repopulation of the transplanted DPPIV^+ cells in the liver. […]

Substance: methoxypolyethyleneglycol20000-propionyl-L-Isoleucyl-L-Glutamyl-Glycyl-L-Prolyl-L-Threonyl-L-Leucyl-L-Arginyl-L-Glutaminyl-L-2-Naphthylalanyl-L-Leucyl-L-Alanyl-L-Alanyl-L-Arginyl-Sarcosyl-Ne-(methoxypolyethyleneglycol20000-propionyl-L-Isoleucyl-L-Glutamyl-Glycyl-L-Prolyl-L-Threonyl-L-Leucyl-L-Arginyl-L-Glutaminyl-L-2-Naphthyl alanyl-L-Leucyl-L-Alanyl-L-Alanyl-L-Arginyl-Sarcosyl-)-Lysinamide [RWJ-800088]
- haemoglobin loss (haemoglobin concentration in the collection tube) compared to FVIII deficient model (Hemophilia A mice; HIR 50 Gy + LSECs + drug): significant decrease
- bleeding and clotting time in functional bleeding assay (Hemophilia A mice; HIR + LSEC transplantation + RWJ-800088): reduced bleeding and clotting time similar to non-Hemophilia A controls
- repopulation of LSECs in the irradiated liver tissue (DPPIV immunostaining) (DPPIV KO mice; 2 months after HIR, 50 Gy, LSECs 4 or 5 days after HIR, 300 μg/kg intraperitoneally 10 minutes after LSEC transplantation): repopulation of LSECs in the irradiated liver tissue was observed
- DPPIV staining of liver lobes (DPPIV KO mice; 5 months after HIR, two surviving mice (mouse 1: median, right, left lobes; mouse 2: median and right lobes), listed as RWJ-80088): extensively positive staining; also recorded: strong DPPIV staining
- DPPIV staining of 4 different liver lobes (DPPIV KO mice; one mouse at 2 months after HIR, median lobe least area covered): All 4 lobes showed positive staining
